“And” between values parts separate entries of the source, which are not always exact repeats. Identical values can stand only once.
Legend:
[1] = Acute toxicity (LD50) in mice; conditions: mouse, in vivo, ip; intraperitoneal injection, male ICR mice (6 weeks old), after one week; read-out: LD₅₀
Protocol: Epigallocatechin gallate was orally administered to male ICR mice (6 weeks old). LD₅₀ of them after one week was 2314 mg/kg. In another case, epigallocatechin gallate was administered to male ICR mice (6 weeks old) by intraperitoneal injection. LD₅₀ of them after one week was 150 mg/kg.

[2] = target: M toxin of A type toxins produced by Clostridium botulinum (Clostridium botulinum, UniProt P0DPI0); conditions: in vivo, iv
[3] = target: S toxin of A type toxins produced by Clostridium botulinum (Clostridium botulinum, UniProt P0DPI0); conditions: in vivo, iv

| Structure (SMILES) | LD50 at 168 h [1] [mg/kg] | Remaining toxic activity (%) [2] | Remaining toxic activity (%) [3] |
| --- | --- | --- | --- |
| O=C(O[C@@H]1Cc2c(O)cc(O)cc2O[C@@H]1c1cc(O)c(O)c(O)c1)c1cc(O)c(O)c(O)c1 [epigallocatechin gallate, (-) epigallocatechin gallate] | 150 |  |  |
| O=c1c(O)cc([C@H]2Oc3cc(O)cc(O)c3C[C@H]2O)cc2c([C@H]3Oc4cc(O)cc(O)c4C[C@H]3O)cc(O)c(O)c12 [free theaflavin] |  | 9.9% and 7.6% | 4.4% and 6.1% |

From EP0397914A1 (priority 1989, dated 1990)
